Legend:
[1] = target: ALK5 (Homo sapiens, UniProt P36897); test: radiometric protein kinase assay, affinity (Kd); assay type: binding
Procedure: (§1) The binding interaction profile of the compounds for ALK1–6, ACVR2A, ACVR2B, and TGFβR2 was determined by using radiometric protein kinase assay. For each compound, ten different concentrations (from 3 × 10^−6 M to 9 × 10^−11 M) were used in the protein kinase reaction. The inhibitor binding constants (Kd values) were calculated based on the 10 corresponding residual activities for each compound using Prism 5.04 (Graphpad, San Diego, CA, USA) according to the following formula:Kd = ([K][I]/[C]) where [K] = molar concentration of non-inhibitor bound kinase at equilibrium, [I] = molar concentration of the free inhibitor at equilibrium, [C] = molar concentration of kinase-inhibitor complex at equilibrium.

[2] = target: ACVR2B (Homo sapiens, UniProt Q13705); test: radiometric protein kinase assay, affinity (Kd); assay type: binding
ACVR2B, sequence (Q13705 19-512): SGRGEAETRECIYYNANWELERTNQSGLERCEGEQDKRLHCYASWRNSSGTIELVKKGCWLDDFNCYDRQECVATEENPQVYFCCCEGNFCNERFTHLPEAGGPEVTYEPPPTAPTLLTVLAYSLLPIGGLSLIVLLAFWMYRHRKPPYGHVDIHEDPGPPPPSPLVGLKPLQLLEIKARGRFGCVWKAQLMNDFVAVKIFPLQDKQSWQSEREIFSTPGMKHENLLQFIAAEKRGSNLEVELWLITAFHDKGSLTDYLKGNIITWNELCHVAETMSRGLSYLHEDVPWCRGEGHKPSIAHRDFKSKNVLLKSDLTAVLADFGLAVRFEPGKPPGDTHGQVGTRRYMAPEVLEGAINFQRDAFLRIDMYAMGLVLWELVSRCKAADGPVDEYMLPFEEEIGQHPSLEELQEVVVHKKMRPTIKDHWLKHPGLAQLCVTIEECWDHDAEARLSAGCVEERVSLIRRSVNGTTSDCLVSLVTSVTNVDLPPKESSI
Procedure: as §1

[3] = target: ALK2 (Homo sapiens, UniProt Q04771); test: radiometric protein kinase assay, affinity (Kd); assay type: binding
ALK2, sequence (Q04771 21-509): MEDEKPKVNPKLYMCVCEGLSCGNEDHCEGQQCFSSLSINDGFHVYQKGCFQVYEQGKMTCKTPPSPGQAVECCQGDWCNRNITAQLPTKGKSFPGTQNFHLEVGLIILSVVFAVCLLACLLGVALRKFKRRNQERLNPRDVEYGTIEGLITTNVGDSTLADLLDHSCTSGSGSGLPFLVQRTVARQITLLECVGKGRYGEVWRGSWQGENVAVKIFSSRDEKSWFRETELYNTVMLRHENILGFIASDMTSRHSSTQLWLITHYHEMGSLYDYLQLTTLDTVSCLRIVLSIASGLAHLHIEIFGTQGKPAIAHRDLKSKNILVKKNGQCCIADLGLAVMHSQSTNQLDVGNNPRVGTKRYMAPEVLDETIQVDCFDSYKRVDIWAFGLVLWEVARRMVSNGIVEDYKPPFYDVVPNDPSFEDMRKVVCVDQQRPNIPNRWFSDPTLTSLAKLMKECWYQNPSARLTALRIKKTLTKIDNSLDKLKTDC
Procedure: as §1

[4] = target: ALK4 (Homo sapiens, UniProt P36896); test: radiometric protein kinase assay, affinity (Kd); assay type: binding
ALK4, sequence (P36896 24-505): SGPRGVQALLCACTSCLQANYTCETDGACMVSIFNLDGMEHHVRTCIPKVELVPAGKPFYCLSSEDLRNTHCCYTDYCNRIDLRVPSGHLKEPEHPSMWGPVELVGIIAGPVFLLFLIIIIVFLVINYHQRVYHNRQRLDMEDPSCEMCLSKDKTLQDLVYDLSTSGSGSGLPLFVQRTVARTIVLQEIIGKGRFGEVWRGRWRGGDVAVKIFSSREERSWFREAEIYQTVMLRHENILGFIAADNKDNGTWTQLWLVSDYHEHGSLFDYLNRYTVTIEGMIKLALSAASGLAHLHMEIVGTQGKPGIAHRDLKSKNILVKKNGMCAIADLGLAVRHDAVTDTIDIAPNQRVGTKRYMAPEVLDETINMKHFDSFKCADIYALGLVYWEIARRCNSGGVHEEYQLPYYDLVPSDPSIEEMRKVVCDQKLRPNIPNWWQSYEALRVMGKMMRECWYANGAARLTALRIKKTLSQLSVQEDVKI
Procedure: as §1

[5] = target: ALK3 (Homo sapiens, UniProt P36894); test: radiometric protein kinase assay, affinity (Kd); assay type: binding
ALK3, sequence (P36894 24-532): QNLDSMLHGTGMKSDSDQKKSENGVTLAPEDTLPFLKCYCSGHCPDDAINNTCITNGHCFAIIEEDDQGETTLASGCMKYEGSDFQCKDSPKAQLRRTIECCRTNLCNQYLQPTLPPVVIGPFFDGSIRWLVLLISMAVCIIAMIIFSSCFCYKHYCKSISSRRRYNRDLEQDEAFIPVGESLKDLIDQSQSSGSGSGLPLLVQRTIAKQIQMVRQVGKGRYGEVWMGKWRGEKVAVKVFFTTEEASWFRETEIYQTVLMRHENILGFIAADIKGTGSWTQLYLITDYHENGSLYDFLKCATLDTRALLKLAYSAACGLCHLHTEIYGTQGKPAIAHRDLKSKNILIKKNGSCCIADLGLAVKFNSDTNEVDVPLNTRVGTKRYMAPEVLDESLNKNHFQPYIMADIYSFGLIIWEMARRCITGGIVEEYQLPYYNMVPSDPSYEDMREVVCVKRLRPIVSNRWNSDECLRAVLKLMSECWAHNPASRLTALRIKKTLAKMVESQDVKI
Procedure: as §1

[6] = target: ALK1 (Homo sapiens, UniProt P37023); test: radiometric protein kinase assay, affinity (Kd); assay type: binding
ALK1, sequence (P37023 22-503): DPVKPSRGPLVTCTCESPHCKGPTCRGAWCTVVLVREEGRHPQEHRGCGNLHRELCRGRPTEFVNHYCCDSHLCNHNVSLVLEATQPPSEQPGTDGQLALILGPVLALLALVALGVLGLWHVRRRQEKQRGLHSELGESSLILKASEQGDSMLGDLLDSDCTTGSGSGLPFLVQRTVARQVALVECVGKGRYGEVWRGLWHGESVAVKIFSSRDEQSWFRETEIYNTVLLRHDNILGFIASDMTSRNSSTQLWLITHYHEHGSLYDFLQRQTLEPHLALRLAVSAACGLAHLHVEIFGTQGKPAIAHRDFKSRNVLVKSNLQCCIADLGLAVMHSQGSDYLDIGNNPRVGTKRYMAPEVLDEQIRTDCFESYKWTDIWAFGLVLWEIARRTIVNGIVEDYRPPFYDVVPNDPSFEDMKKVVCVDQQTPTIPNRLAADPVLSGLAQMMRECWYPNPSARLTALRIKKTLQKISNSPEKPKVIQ
Procedure: The binding interaction profile of the compounds for ALK1–6, ACVR2A, ACVR2B, and TGFβR2 was determined by using radiometric protein kinase assay. For each compound, ten different concentrations (from 3 × 10^−6 M to 9 × 10^−11 M) were used in the protein kinase reaction.

[7] = system: Tg (fli:EGFP) zebrafish embryos; test: Zebrafish embryo toxicity assay; assay type: in vivo; details: 0.5 µM in egg water, three days
Procedure: Breeding pairs of the transgenic Casper zebrafish line Tg (fli:EGFP) were put together in a tank, and the next morning, all embryos were collected as previously described. Fertilized eggs that were at the same development stage (around 2.5 h post-fertilization (hpf)) were selected under the microscope. The eggs were randomly divided into different groups, and each group contained about 20 embryos. All the embryos were raised in egg water (60 μg/mL sea salt) and placed in a 28 °C incubator. The compounds dissolved in DMSO were diluted in egg water to a final concentration of 0.5 µM. Equal amounts of DMSO were added to the vehicle control group. Egg water was changed every day, and abnormal embryos were removed. Embryos were recorded until day 3. All experiments were performed in technical triplicates and repeated three times, and representative results are shown. The survival rate was calculated according to the following formula: Survival rate (%) = 100% × (Number of zebrafish that survived at the end)/(Number of zebrafish present at the beginning).

[8] = system: VEGF-induced pVEGFR; test: Western blot of VEGF-induced VEGFR phosphorylation in HUVECs; assay type: cell-based, human; details: VEGF 40 ng/mL
Procedure: EA.hy926 cells or HUVECs were seeded in 6-well plates and starved in a serum-free medium for 4 h after reaching 80% confluence. The compounds were added 30 min prior to stimulation with the corresponding ligands. EA.hy926 cells were incubated with BMP9 (1 ng/mL), BMP6 (50 ng/mL), TGF-β2 (1 ng/mL), or vehicle control for 1 h. For HUVECs, after 4 h starvation, the cells were pre-treated with or without the indicated compounds for 30 min and subsequently stimulated with VEGF (40 ng/mL) for 10 min. The cells were harvested and lysed in radioimmunoprecipitation assay (RIPA) lysis buffer containing 1× complete protease inhibitor cocktail (11836153001, Roche, Basel, Switzerland). The protein concentration was determined using the DC protein assay kit (5000111, Bio-Rad). After adding loading buffer, the samples were boiled and proteins separated by sodium dodecyl sulfate polyacrylamide gel electrophoresis (SDS-PAGE). […] The protein bands were quantified using ImageJ (National Institutes of Health, Bethesda, MD, USA).

[9] = system: constitutively active ALK2 (caALK2); test: caALK2-induced BRE-Luc reporter activity in C2C12 cells; assay type: cell-based; details: C2C12 cells, 0.1, 0.5 or 1 μM, 16 hours
Excerpt: To further investigate and validate the selective inhibitory effects of OD16 and OD29 toward BMP9/ALK1 and BMP6/ALK2 signaling, we transfected C2C12 myoblast cells with constitutively active mutant ALK1 and ALK2 (caALK1 and caALK2). These constitutively active receptors signal in the absence of exogenous ligands and allow for a more direct assessment of inhibitory effects that are elicited by kinase receptor inhibitors.
Figure S2. Structural model of (A) LDN−193189, (B) OD16 (grey) overlay with LDN−193189 (green), (C) OD29 (grey) over-lay with LDN−193189 (green) bind to the ALK1 hinge region in the ATP pocket.
Figure S3. RT-qPCR analysis of the ALK1, ALK2 and GAPDH mRNA expression in EA.hy926 and HUVEC cells. Mean Cq and Cq standard error of the mean (SEM) are listed. Representative results from three independent experiments are shown.
Figure S4. OD29 and OD16 are two small molecule BMP type I receptors kinase inhibitors in C2C12 cells. Effects of vehicle control (DMSO), LDN−193189, OD16 or OD29 on BRE transcriptional luciferase reporter activity induced by the ectopic expression of caALK1 (A) or caALK2 (B) in C2C12 cells. Cells were incubated with the inhibitors in three different con-centrations (0.1 μM, 0.5 μM or 1 μM) for 16 hours. Representative results from three biologically independent experiments are shown as mean ± SD. NS, not significant; * p < 0.05, ** p < 0.005; *** p < 0.001. […]

ALK5, sequence (P36897 34-503): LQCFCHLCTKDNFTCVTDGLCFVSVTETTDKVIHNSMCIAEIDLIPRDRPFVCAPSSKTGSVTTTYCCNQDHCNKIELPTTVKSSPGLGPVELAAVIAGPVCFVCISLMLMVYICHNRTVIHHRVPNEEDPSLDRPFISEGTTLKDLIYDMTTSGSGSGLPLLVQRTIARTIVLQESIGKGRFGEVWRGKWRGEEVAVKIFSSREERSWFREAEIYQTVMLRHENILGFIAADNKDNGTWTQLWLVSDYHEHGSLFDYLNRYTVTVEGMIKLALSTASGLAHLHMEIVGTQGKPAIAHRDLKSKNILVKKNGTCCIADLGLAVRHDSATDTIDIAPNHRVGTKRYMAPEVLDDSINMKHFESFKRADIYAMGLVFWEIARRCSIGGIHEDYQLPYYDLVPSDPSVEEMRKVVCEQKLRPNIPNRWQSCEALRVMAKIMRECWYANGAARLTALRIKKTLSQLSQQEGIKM

Structure (SMILES)	Kd [1] [nM]	Kd [2] [nM]	Kd [3] [nM]	Kd [4] [nM]	Kd [5] [nM]	Kd [6] [nM]	survival rate of the zebrafish [7]	effect on VEGF-induced pVEGFR [8]	effect on caALK2-induced BRE-Luc reporter activity [9]
CN1CCC(=O)NCCNc2ccn3ncc(c3n2)-c2cccc(c2)C1 [OD29]	1010	558	10	652	1010	6	80–93%	did not affect	
CN1CCc2cccc(c2)Nc2nccc(n2)N2CCCc3cc(ccc32)C1 [OD16]	360	220	17	270	55	20	80–93%		
c1ccc2c(-c3cnn4cc(-c5ccc(N6CCNCC6)cc5)cnc34)ccnc2c1 [LDN-193189, reference compound]									in a dose-dependent manner attenuated
